We go through 14 molecules from PubChem BioAssay AID192 (DTP/NCI, 2004).

In the assay the test system is BDF1 mice, B16 melanoma ip, median survival T/C. The assay can be described thus: NCI In Vivo Anticancer Drug Screen. Data for tumor model B16 Melanoma (intraperitoneal) in B6D2F1 (BDF1) mice. Conditions: endpoint: median survival time, higher = longer survival. In outline: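 Read-out: survival or tumor size, given as treated/control ratio. Controls received vehicle only; animals bore transplantable tumors.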

[1] abbreviates: dose: 100.0 mg/kg/injection, schedule: Q01DX009 (ip), vehicle: Klucel (hydroxypropylcellulose) (HPC).
[2] abbreviates: dose: 12.5 mg/kg/injection, schedule: Q01DX009 (ip), vehicle: Klucel (hydroxypropylcellulose) (HPC).
[3] abbreviates: dose: 25.0 mg/kg/injection, schedule: Q01DX009 (ip), vehicle: Klucel (hydroxypropylcellulose) (HPC).
Setting [4] is: dose: 6.25 mg/kg/injection, schedule: Q01DX009 (ip), vehicle: Klucel (hydroxypropylcellulose) (HPC).
The mark [5] stands for this setting: dose: 50.0 mg/kg/injection, schedule: Q01DX009 (ip), vehicle: Klucel (hydroxypropylcellulose) (HPC).

Values joined by “and” are separate entries in the source; they are usually repeats but may differ in a detail not shown here. Equal entries are not always repeated. Toxic doses and inconclusive results are not listed.

For `CC[C@@]1(O)C[C@H](OC2CC(N(C)C)C(OC3CC(O)C(OC4CCC(=O)C(C)O4)C(C)O3)C(C)O2)c2c(cc3c(c2O)C(=O)c2c(O)ccc(O)c2C3=O)[C@H]1C(=O)OC` (stereo not given in full), the T/C is, setting by setting: (dose: 0.25 mg/kg/injection, schedule: Q01DX009 (ip), vehicle: saline) 119 % of control; (dose: 0.25 mg/kg/injection, schedule: Q01DX009 (ip), vehicle: water) 110 % of control; (dose: 0.37 mg/kg/injection, schedule: Q01DX009 (ip), vehicle: saline) 102 % of control; (dose: 0.5 mg/kg/injection, schedule: Q01DX009 (ip), vehicle: saline) 114 % of control; (dose: 0.5 mg/kg/injection, schedule: Q01DX009 (ip), vehicle: water) 120 % of control; (dose: 0.75 mg/kg/injection, schedule: Q01DX009 (ip), vehicle: saline) 113 % of control. Further, the T/C is 91 % of control (dose: 0.75 mg/kg/injection, schedule: Q04DX003 (ip), vehicle: saline); 157 % of control and 168 % of control (dose: 1.0 mg/kg/injection, schedule: Q01DX009 (ip), vehicle: saline); 150 % of control (dose: 1.5 mg/kg/injection, schedule: Q01DX009 (ip), vehicle: saline); 91 % of control and 106 % of control (dose: 1.5 mg/kg/injection, schedule: Q04DX003 (ip), vehicle: saline); 107 % of control (dose: 2.0 mg/kg/injection, schedule: Q01DX009 (ip), vehicle: saline); 108 % of control and 115 % of control (dose: 3.0 mg/kg/injection, schedule: Q04DX003 (ip), vehicle: saline). Besides, the T/C was 100 % of control and 102 % of control (dose: 3.6 mg/kg/injection, schedule: Q01DX001 (ip), vehicle: water); 92 % of control and 102 % of control (dose: 6.0 mg/kg/injection, schedule: Q01DX001 (ip), vehicle: water); 88 % of control and 97 % of control (dose: 6.0 mg/kg/injection, schedule: Q04DX003 (ip), vehicle: saline); 101 % of control and 102 % of control (dose: 10.0 mg/kg/injection, schedule: Q01DX001 (ip), vehicle: water); 106 % of control (dose: 16.7 mg/kg/injection, schedule: Q01DX001 (ip), vehicle: water).

In the case of `CCN(c1ccccc1C)S(=O)(=O)c1ccccc1`, the T/C reads like this: (dose: 25.0 mg/kg/injection, schedule: Q01DX009 (ip), vehicle: saline with Tween-80) 100 % of control; (dose: 50.0 mg/kg/injection, schedule: Q01DX009 (ip), vehicle: saline with Tween-80) 101 % of control; under setting [1], 96 % of control; (dose: 100.0 mg/kg/injection, schedule: Q01DX009 (ip), vehicle: saline with Tween-80) 96 % of control.

Consider `Cc1cccc2c(Nc3ccc(NS(C)(=O)=O)cc3)c3ccc([N+](=O)[O-])cc3nc12`, for which the T/C (dose: 8.0 mg/kg/injection, schedule: Q01DX009 (ip), vehicle: saline with Tween-80) was 155 % of control and the T/C (dose: 12.0 mg/kg/injection, schedule: Q01DX009 (ip), vehicle: saline with Tween-80) was 194 % of control.

As to `COc1ccc2c(c1OC(C)=O)-c1cc(OC(C)=O)cc3c1C(C2)N(C(=O)CN(CCCl)CCCl)CC3` (stereo not given), the T/C runs as follows: (dose: 1.56 mg/kg/injection, schedule: Q04DX003 (ip), vehicle: DMSO) 92 % of control; (dose: 3.13 mg/kg/injection, schedule: Q04DX003 (ip), vehicle: DMSO) 108 % of control; (dose: 6.25 mg/kg/injection, schedule: Q04DX003 (ip), vehicle: DMSO) 115 % of control; (dose: 25.0 mg/kg/injection, schedule: Q04DX003 (ip), vehicle: DMSO) 165 % of control.

For `Cc1cccc(NC(=O)CCl)c1`, the T/C runs as follows: (dose: 50.0 mg/kg/injection, schedule: Q01DX009 (ip), vehicle: carboxymethylcellulose (CMC)) 109 % of control; (dose: 100.0 mg/kg/injection, schedule: Q01DX009 (ip), vehicle: carboxymethylcellulose (CMC)) 101 % of control.

As to `Cc1ccc(Nc2c3ccccc3nc3ccccc23)cc1`, the T/C was 123 % of control (dose: 18.0 mg/kg/injection, schedule: Q01DX009 (ip), vehicle: saline with Tween-80); 105 % of control (dose: 18.0 mg/kg/injection, schedule: Q04DX003 (ip), vehicle: saline with Tween-80); 110 % of control (dose: 37.5 mg/kg/injection, schedule: Q04DX003 (ip), vehicle: saline with Tween-80); 105 % of control (dose: 75.0 mg/kg/injection, schedule: Q04DX003 (ip), vehicle: saline with Tween-80).

Consider `Nc1ncn(C2OC(CO)C(O)C2O)c(=O)n1` (stereo not given), for which the T/C is, setting by setting: (dose: 0.25 mg/kg/injection, schedule: Q01DX009 (ip), vehicle: suspension in saline) 90 % of control; (dose: 0.5 mg/kg/injection, schedule: Q01DX009 (ip), vehicle: suspension in saline) 112 % of control; (dose: 0.75 mg/kg/injection, schedule: Q01DX009 (ip), vehicle: saline with Tween-80) 118 % of control; (dose: 1.0 mg/kg/injection, schedule: Q01DX009 (ip), vehicle: suspension in saline) 91 % of control; (dose: 1.5 mg/kg/injection, schedule: Q01DX009 (ip), vehicle: saline with Tween-80) 124 % of control; (dose: 2.0 mg/kg/injection, schedule: Q01DX009 (ip), vehicle: suspension in saline) 92 % of control.

For `CCCCCCCCCc1ccc(OC(=O)CCC)cc1`, the T/C is 106 % of control under setting [2]; 94 % of control under setting [3]; 87 % of control (dose: 400.0 mg/kg/injection, schedule: Q01DX009 (ip), vehicle: Klucel (hydroxypropylcellulose) (HPC)).

For the molecule `O=S(=O)(O)O`, the T/C by setting is: under setting [4], 111 % of control; under setting [2], 106 % of control; under setting [3], 99 % of control; under setting [5], 93 % of control.

As to `COc1cccc2c1C(=O)c1c(O)c3c(c(O)c1C2=O)CC(O)(/C(C)=N/NC(=O)CCC(=O)N/N=C(\C)C1(O)Cc2c(O)c4c(c(O)c2C(OC2CC(N)C(O)C(C)O2)C1)C(=O)c1c(OC)cccc1C4=O)CC3OC1CC(N)C(O)C(C)O1` (stereo not given), the T/C is, setting by setting: (dose: 4.0 mg/kg/injection, schedule: Q01DX001 (ip), vehicle: water) 163 % of control; (dose: 8.0 mg/kg/injection, schedule: Q01DX001 (ip), vehicle: water) 165 % of control and 168 % of control and 172 % of control; (dose: 16.0 mg/kg/injection, schedule: Q01DX001 (ip), vehicle: water) 189 % of control and 292 % of control; (dose: 32.0 mg/kg/injection, schedule: Q01DX001 (ip), vehicle: water) 123 % of control and 293 % of control and 313 % of control; (dose: 64.0 mg/kg/injection, schedule: Q01DX001 (ip), vehicle: water) 315 % of control.

Take `COC(=O)c1cc([N+](=O)[O-])cc2ccccc12`: the T/C was 100 % of control under setting [5]; 97 % of control under setting [1]; 94 % of control (dose: 200.0 mg/kg/injection, schedule: Q01DX009 (ip), vehicle: Klucel (hydroxypropylcellulose) (HPC)).

Regarding `COC(=O)C1C2CC3c4[nH]c5ccc(OC)cc5c4CCN3CC2CC(OC(=O)c2cc(OC)c(OC)c(OC)c2)C1OC` (stereo not given), the T/C runs as follows: (dose: 0.17 mg/kg/injection, schedule: Q01DX009 (ip), vehicle: Klucel (hydroxypropylcellulose) (HPC)) 88 % of control; (dose: 0.35 mg/kg/injection, schedule: Q01DX009 (ip), vehicle: Klucel (hydroxypropylcellulose) (HPC)) 110 % of control; (dose: 1.42 mg/kg/injection, schedule: Q01DX009 (ip), vehicle: Klucel (hydroxypropylcellulose) (HPC)) 91 % of control; (dose: 2.85 mg/kg/injection, schedule: Q01DX009 (ip), vehicle: Klucel (hydroxypropylcellulose) (HPC)) 89 % of control; (dose: 22.81 mg/kg/injection, schedule: Q01DX009 (ip), vehicle: Klucel (hydroxypropylcellulose) (HPC)) 100 % of control; (dose: 45.62 mg/kg/injection, schedule: Q01DX009 (ip), vehicle: Klucel (hydroxypropylcellulose) (HPC)) 98 % of control.

`Cc1cnc(/C=N\NC(N)=S)c2cccc(N)c12`: the T/C runs as follows: (dose: 3.12 mg/kg/injection, schedule: Q01DX009 (ip), vehicle: saline with Tween-80) 100 % of control; (dose: 3.13 mg/kg/injection, schedule: Q01DX009 (ip), vehicle: Klucel (hydroxypropylcellulose) (HPC)) 102 % of control; (dose: 3.13 mg/kg/injection, schedule: Q01DX009 (ip), vehicle: saline with Tween-80) 114 % of control; under setting [4], 114 % of control; (dose: 6.25 mg/kg/injection, schedule: Q01DX009 (ip), vehicle: saline with Tween-80) 103 % of control and 124 % of control; under setting [2], 115 % of control.

Take `[Cl][Hg][c]1ccc2ccccc2c1`: the T/C (dose: 1.5 mg/kg/injection, schedule: Q01DX009 (ip), vehicle: gum acacia) was 108 % of control; the T/C (dose: 3.0 mg/kg/injection, schedule: Q01DX009 (ip), vehicle: gum acacia) was 95 % of control; the T/C (dose: 6.0 mg/kg/injection, schedule: Q01DX009 (ip), vehicle: gum acacia) was 95 % of control; the T/C (dose: 12.5 mg/kg/injection, schedule: Q01DX009 (ip), vehicle: gum acacia) was 96 % of control.
